In brackets after ≈: the same amount, converted by molar mass.
Experiments:
[1] = Drug concentration in plasma of monoiodoacetate-induced chronic Sprague-Dawley rat model of osteoarthritis at 1 mg/kg, po administered twice daily for 5 days; type: ADME, organism-based; details: time 5 day
[2] = Clearance in iv dosed dog; type: ADME, organism-based, Canis lupus familiaris; details: in vivo
[3] = Drug concentration in brain of monoiodoacetate-induced acute Sprague-Dawley rat model of osteoarthritis at 10 mg/kg, po administered for 5 days and measured after 15 mins; type: ADME, organism-based; details: time 5 day, read-out: Ct
[4] = target: T1, Sodium channel protein type 9 subunit alpha (Homo sapiens, UniProt Q15858)
T1 sequence (Q15858 whole entry, looked up): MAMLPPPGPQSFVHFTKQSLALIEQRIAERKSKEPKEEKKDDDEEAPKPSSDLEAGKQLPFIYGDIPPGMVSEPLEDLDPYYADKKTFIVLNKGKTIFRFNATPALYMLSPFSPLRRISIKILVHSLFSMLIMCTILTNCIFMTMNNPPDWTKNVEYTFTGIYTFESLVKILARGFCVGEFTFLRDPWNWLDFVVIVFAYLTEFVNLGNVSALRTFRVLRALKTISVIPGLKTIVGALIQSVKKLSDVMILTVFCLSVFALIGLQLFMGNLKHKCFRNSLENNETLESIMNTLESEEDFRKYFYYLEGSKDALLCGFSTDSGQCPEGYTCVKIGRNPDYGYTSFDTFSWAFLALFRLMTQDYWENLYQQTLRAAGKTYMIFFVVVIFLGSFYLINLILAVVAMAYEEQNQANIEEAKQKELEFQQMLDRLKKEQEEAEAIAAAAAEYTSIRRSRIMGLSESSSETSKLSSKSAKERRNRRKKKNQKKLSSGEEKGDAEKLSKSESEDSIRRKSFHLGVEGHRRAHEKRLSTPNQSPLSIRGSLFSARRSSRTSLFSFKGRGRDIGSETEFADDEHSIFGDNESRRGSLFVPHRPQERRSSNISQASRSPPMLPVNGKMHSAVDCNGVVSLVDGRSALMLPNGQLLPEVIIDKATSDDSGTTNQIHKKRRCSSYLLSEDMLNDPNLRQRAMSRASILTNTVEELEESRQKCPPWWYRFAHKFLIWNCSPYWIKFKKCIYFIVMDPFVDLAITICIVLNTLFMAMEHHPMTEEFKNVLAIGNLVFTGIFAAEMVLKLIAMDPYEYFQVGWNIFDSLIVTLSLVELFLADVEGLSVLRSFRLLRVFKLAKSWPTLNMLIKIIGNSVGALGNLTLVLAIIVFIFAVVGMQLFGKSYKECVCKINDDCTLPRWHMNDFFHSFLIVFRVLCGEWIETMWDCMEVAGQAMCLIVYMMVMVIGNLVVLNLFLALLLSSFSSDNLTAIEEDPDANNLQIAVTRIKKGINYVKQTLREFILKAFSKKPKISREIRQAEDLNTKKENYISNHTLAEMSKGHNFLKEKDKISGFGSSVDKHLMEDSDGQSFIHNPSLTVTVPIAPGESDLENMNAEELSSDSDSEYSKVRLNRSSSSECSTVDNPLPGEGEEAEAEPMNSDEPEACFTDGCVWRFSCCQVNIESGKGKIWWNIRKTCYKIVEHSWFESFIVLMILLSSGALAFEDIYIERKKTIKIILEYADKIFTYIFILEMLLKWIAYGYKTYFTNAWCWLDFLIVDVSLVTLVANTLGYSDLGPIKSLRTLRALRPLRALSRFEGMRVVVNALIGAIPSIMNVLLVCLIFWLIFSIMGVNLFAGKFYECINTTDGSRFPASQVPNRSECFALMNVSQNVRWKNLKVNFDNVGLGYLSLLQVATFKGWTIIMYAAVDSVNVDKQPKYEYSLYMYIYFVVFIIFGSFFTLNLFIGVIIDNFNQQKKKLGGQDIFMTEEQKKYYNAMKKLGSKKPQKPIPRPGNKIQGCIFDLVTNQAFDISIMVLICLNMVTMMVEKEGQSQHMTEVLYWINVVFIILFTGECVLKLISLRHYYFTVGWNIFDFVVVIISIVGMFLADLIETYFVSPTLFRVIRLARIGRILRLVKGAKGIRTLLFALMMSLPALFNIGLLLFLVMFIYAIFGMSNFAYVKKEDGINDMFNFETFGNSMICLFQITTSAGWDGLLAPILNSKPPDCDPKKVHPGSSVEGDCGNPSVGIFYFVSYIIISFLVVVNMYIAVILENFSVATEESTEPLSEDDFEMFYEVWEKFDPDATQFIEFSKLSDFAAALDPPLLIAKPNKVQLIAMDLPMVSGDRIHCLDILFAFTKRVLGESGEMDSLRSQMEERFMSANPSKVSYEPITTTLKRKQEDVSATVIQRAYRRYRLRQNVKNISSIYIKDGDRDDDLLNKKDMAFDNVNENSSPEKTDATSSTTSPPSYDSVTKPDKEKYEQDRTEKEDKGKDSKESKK

[5] = Drug concentration in plasma of monoiodoacetate-induced chronic Sprague-Dawley rat model of osteoarthritis at 10 mg/kg, po administered twice for 1 day; type: ADME, organism-based
[6] = Oral bioavailability in dog; type: ADME, organism-based, Canis lupus familiaris; details: in vivo
[7] = Cardiotoxicity in anesthetized rat CV model assessed as effect on PR interval upto 31 uM by ECG analysis; type: toxicity
[8] = Drug concentration in plasma of monoiodoacetate-induced chronic Sprague-Dawley rat model of osteoarthritis at 10 mg/kg, po administered twice daily for 5 days; type: ADME, organism-based; details: time 5 day
[9] = Half-life in orally dosed monkey; type: ADME, organism-based, Macaca mulatta; details: rhesus monkey, in vivo; route po
[10] = Oral bioavailability in monkey; type: ADME, organism-based, Macaca mulatta; details: rhesus monkey, in vivo
[11] = Effect on locomotor activity in rat by rotorod test; type: toxicity
[12] = Drug concentration in rat brain assessed as free fraction; type: ADME, tissue-based
[13] = Drug concentration in brain of monoiodoacetate-induced chronic Sprague-Dawley rat model of osteoarthritis at 3 mg/kg, po administered twice daily for 5 days; type: ADME, organism-based; details: time 5 day, read-out: Ct
[14] = Cardiotoxicity in conscious dog CV model assessed as effect on QRS complex upto 47 uM by ECG analysis; type: toxicity, Canis lupus familiaris
Rattus norvegicus [15] = species: Rattus norvegicus; assay: animal or person; details: Sprague-Dawley
[16] = Drug concentration in plasma of monoiodoacetate-induced acute Sprague-Dawley rat model of osteoarthritis at 30 mg/kg, po administered for 5 days and measured after 15 mins; type: ADME, organism-based; details: time 5 day
[17] = Clearance in iv dosed monkey; type: ADME, organism-based, Macaca mulatta; details: rhesus monkey, in vivo
[18] = Drug concentration in brain of monoiodoacetate-induced chronic Sprague-Dawley rat model of osteoarthritis at 0.3 mg/kg, po administered twice daily for 5 days; type: ADME, organism-based; details: time 5 day, read-out: Ct
[19] = Effect on locomotor activity in rat by locomotor assay; type: toxicity
in vivo [20] = details: Sprague-Dawley, rat, po
[21] = Drug concentration in plasma of monoiodoacetate-induced chronic Sprague-Dawley rat model of osteoarthritis at 3 mg/kg, po administered twice daily for 5 days; type: ADME, organism-based; details: time 5 day
[22] = Drug concentration in plasma of monoiodoacetate-induced chronic Sprague-Dawley rat model of osteoarthritis at 0.3 mg/kg, po administered twice for 1 day; type: ADME, organism-based
[23] = Drug concentration in plasma of monoiodoacetate-induced chronic Sprague-Dawley rat model of osteoarthritis at 0.3 mg/kg, po administered twice daily for 5 days; type: ADME, organism-based; details: time 5 day
[24] = Cardiotoxicity in conscious dog CV model assessed as effect on PR interval upto 47 uM by ECG analysis; type: toxicity, Canis lupus familiaris
[25] = Ratio of free drug concentration in brain to plasma of rat; type: ADME, cell-free; details: brain and plasma
Rattus norvegicus [26] = species: Rattus norvegicus; assay: cells; details: Sprague-Dawley
[27] = Drug concentration in brain of monoiodoacetate-induced chronic Sprague-Dawley rat model of osteoarthritis at 10 mg/kg, po administered twice daily for 5 days; type: ADME, organism-based; details: time 5 day, read-out: Ct
[28] = Drug exposure in plasma of rat; type: ADME; details: in vivo
in vivo [29] = details: Sprague-Dawley, rat, iv
Rattus norvegicus [30] = species: Rattus norvegicus; assay: animal or person; details: Sprague-Dawley; remark: listed apart in the source
[31] = Volume of distribution at steady state in orally dosed monkey; type: ADME, organism-based, Macaca mulatta; details: rhesus monkey, in vivo, po
[32] = Drug concentration in plasma of monoiodoacetate-induced chronic Sprague-Dawley rat model of osteoarthritis at 3 mg/kg, po administered twice for 1 day; type: ADME, organism-based
[33] = Inhibition of rat Nav 1.7 by FRET based membrane potential assay
[34] = rat, in vivo, po
[35] = Drug concentration in plasma of monoiodoacetate-induced acute Sprague-Dawley rat model of osteoarthritis at 3 mg/kg, po administered for 5 days and measured after 15 mins; type: ADME, organism-based; details: time 5 day
[36] = Cardiotoxicity in anesthetized rat CV model assessed as effect on QRS complex upto 31 uM by ECG analysis; type: toxicity
[37] = Drug concentration in plasma of monoiodoacetate-induced acute Sprague-Dawley rat model of osteoarthritis at 10 mg/kg, po administered for 5 days and measured after 15 mins; type: ADME, organism-based; details: time 5 day
[38] = Drug concentration in plasma of monoiodoacetate-induced chronic Sprague-Dawley rat model of osteoarthritis at 1 mg/kg, po administered twice for 1 day; type: ADME, organism-based
[39] = Drug concentration in brain of monoiodoacetate-induced chronic Sprague-Dawley rat model of osteoarthritis at 1 mg/kg, po administered twice daily for 5 days; type: ADME, organism-based; details: time 5 day, read-out: Ct
[40] = Half-life in orally dosed dog; type: ADME, organism-based, Canis lupus familiaris; details: in vivo, route po
[41] = target: T1, Sodium channel protein type 9 subunit alpha; assay: Inhibition of recombinant human Nav 1.7 expressed in HEK293F cells at […] holding potential by manual voltage clamp electrophysiology method; type: cell-based
[42] = Drug concentration in brain of monoiodoacetate-induced acute Sprague-Dawley rat model of osteoarthritis at 3 mg/kg, po administered for 5 days and measured after 15 mins; type: ADME, organism-based; details: time 5 day, read-out: Ct
physchem = details: phosphate buffer
[43] = Drug concentration in rat plasma assessed as free fraction; type: ADME, cell-free
[44] = target: Sodium channel protein type 5 subunit alpha (Homo sapiens, UniProt Q14524)
Sequence of Sodium channel protein type 5 subunit alpha (Q14524 whole entry): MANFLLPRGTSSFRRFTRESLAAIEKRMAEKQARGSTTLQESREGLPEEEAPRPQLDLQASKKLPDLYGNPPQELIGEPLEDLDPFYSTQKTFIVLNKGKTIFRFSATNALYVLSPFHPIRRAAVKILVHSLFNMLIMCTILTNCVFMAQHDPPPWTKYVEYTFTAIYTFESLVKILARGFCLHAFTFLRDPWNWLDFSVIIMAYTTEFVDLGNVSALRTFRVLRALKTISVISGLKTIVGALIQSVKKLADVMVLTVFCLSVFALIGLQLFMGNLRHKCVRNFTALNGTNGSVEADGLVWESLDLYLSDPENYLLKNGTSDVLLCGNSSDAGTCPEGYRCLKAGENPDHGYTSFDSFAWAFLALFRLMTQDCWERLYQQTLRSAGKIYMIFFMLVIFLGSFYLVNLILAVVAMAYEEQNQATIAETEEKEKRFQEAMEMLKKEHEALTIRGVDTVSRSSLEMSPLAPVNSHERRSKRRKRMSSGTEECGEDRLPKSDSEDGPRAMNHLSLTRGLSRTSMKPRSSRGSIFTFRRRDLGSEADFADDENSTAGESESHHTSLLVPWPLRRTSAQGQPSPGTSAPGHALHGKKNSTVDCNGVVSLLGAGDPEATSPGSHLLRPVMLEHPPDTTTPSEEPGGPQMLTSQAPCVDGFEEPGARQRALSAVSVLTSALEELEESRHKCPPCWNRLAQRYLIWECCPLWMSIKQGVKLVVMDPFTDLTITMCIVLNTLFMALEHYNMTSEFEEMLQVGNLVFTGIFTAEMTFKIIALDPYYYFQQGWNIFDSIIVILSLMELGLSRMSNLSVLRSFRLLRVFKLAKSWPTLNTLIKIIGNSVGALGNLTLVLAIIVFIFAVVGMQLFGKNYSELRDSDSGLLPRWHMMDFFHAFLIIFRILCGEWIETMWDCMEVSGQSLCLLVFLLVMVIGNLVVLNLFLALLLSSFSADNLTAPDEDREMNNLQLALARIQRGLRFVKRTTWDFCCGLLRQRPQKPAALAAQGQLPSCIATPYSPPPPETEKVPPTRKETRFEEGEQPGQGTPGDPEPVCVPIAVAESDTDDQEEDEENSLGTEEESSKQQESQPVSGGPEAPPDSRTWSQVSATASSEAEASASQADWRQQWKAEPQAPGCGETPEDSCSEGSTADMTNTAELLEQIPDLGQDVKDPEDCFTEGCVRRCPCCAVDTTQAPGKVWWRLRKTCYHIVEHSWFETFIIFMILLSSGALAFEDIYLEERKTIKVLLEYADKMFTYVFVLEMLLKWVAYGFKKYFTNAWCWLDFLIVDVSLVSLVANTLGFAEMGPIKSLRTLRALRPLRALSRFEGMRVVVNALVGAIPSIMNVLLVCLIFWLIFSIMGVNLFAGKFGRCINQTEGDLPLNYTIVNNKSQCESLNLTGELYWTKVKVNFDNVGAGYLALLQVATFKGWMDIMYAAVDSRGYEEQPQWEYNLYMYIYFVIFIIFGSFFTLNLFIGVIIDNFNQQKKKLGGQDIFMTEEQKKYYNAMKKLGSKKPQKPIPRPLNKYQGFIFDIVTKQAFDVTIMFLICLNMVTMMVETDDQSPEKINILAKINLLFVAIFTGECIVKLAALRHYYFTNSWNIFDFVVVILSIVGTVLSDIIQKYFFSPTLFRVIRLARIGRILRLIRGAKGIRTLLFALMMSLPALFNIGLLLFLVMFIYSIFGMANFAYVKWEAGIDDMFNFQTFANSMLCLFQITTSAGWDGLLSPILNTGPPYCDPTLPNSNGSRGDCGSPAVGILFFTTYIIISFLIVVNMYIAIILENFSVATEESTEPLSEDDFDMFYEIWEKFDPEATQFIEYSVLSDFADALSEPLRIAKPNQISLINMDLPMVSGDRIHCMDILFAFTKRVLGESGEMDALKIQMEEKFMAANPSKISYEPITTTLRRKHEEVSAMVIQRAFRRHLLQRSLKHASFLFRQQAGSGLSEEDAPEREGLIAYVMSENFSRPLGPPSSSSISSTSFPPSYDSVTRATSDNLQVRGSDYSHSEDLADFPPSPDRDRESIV

[45] = Drug concentration in brain of monoiodoacetate-induced acute Sprague-Dawley rat model of osteoarthritis at 30 mg/kg, po administered for 5 days and measured after 15 mins; type: ADME, organism-based; details: time 5 day, read-out: Ct
[46] = Volume of distribution at steady state in orally dosed dog; type: ADME, organism-based, Canis lupus familiaris; details: in vivo, po
in vivo [47] = details: Sprague-Dawley, rat, po; remark: listed apart in the source
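For solubility in this document: determined using a high-throughput solubility method.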

Work on `O=C(c1ccc2cc(Oc3ccc(C(F)(F)F)cn3)ccc2n1)N1CC[C@@H](F)C1` yielded a concentration at 120 h [1] of 480 ng/mL, a clearance [2] of 5 mL/min/kg and a concentration at 120 h [3] of 5240 ng/mL. For the same compound, the IC50 [4] was 3140 nM, the concentration at 24 h [5] was 3440 ng/mL and the bioavailability [6] was 85%. The Activity [7] was “Non-Toxic”, the concentration at 120 h [8] was 5480 ng/mL and the half-life [9] was 7.6 h. The bioavailability [10] was 110%, the Activity [11] was “Non-Toxic” and the fraction unbound [12] was 0.015. For the same compound, the concentration at 120 h [13] was 1140 ng/mL, the Activity [14] was “Non-Toxic” and the EC50 (Rattus norvegicus [15]) was 1.4 µg/mL (≈ 3.45 µM). It also gave a concentration at 120 h [16] of 10000 ng/mL, a clearance [17] of 5 mL/min/kg and a concentration at 120 h [18] of 110 ng/mL. For the same compound, the Activity [19] was “Non-Toxic”, the bioavailability (in vivo [20]) was 80% and the concentration at 120 h [21] was 1480 ng/mL. The concentration at 24 h [22] was 70 ng/mL, the concentration at 120 h [23] was 140 ng/mL and the Activity [24] was “Non-Toxic”. The Kp uu [25] was 0.29, the EC50 (Rattus norvegicus [26]) was 4 µg/mL (≈ 9.87 µM) and the concentration at 120 h [27] was 4230 ng/mL. For the same compound, the Cp [28] was 11200 ng/mL, the clearance (in vivo [29]) was 7.17 mL/min/kg and the EC50 (Rattus norvegicus [30]) was 0.24 µg/mL (≈ 0.592 µM). It also gave a Vdss [31] of 3.6 L/kg, a concentration at 24 h [32] of 750 ng/mL and an IC50 [33] of 2860 nM. For the same compound, the Vdss [34] was 4.06 L/kg, the concentration at 120 h [35] was 1410 ng/mL and the Activity [36] was “Non-Toxic”. For the same compound, the concentration at 120 h [37] was 5180 ng/mL, the concentration at 24 h [38] was 270 ng/mL and the concentration at 120 h [39] was 260 ng/mL. It also gave a half-life [40] of 13.4 h, an IC50 [41] of 1100 nM and a concentration at 120 h [42] of 1530 ng/mL. For the same compound, the solubility (physchem) was 84 µM (≈ 34 µg/mL), the fraction unbound [43] was 0.05 and the IC50 [44] was 33000 nM. It also gave a concentration at 120 h [45] of 10800 ng/mL, a Vdss [46] of 4.1 L/kg and a half-life (in vivo [47]) of 5.44 h.
